Our source for the IC₅₀, activité in vivo and cardiotoxicité values is EP0363255A1, “Analogues of 4-desoxydaunosamine, process for their preparation, anthracycline derivatives of these analogues and use of these anthracyclines as medicaments” (LABORATOIRES HOECHST S.A., priority 1988, dated 1990).

In series [1] the test system is cellules tumorales L 1210. In words: Test de prolifération (réduction MTT), L1210. The format is cell-based. To be noted: 72 h incubation. As for the experimental part: (§1) Des cellules tumorales L 1210, A 549 et HT 29 en croissance exponentielle, à une densité de 5.10³/ml dans un milieu RPMI, sont incubées dans des plaques de microtitration contenant 96 puits, pendant 72 heures (37°C, 5 % CO₂, 95 % d'humidité relative) avec diffé-rentes concentrations de chacun des glycosides conformes à l'invention.
(§2) Les témoins consistent en cellules tumorales dans un milieu de culture frais.
(§3) Quatre puits sont préparés pour chaque concentration de glycoside et pour le témoin.
(§4) Après 65 heures, 50 µl de MTT (2,5 mg/ml dans du PBS) sont ajoutés.
(§5) Le MTT sera réduit, en présence de cellules vivantes, en un colorant formazan rouge insoluble.
(§6) Après 7 à 24 heures d'incubation supplémentaire, le surnageant est enlevé.
(§7) Le colorant formazan est solubilisé par l'addition de 100 µl de DMSO dans chaque puits, suivie d'une agitation douce. L'extinction est mesurée pour chaque puits, à 492 nm (photomètre Multiscan 340 cc, Fa. Flow).
(§8) Les résultats sont exprimés sous forme de relation de l'extinction après incubation avec les glycosides par rapport à l'extinction obtenue avec les té-moins. Le coefficient de variation est inférieur à 15 %. Les résultats sont représentés dans le tableau I, ci-après : […]

The next series concerns cellules tumorales HT 29. In words: Test de prolifération (réduction MTT), HT 29. It counts as cell-based. The note with it: HT 29, MTT test, 72 h incubation. As for the experimental part: as §1, §2, §3, §4, §5, §6, §7, §8
A general note: Formazan colour is commonly taken as a measure of viable cells.

The next series deals with cellules tumorales A 549. The experiment in a line: Test de prolifération (réduction MTT), A 549. The format is cell-based. The note with it: A 549, MTT test, 72 h incubation. As for the experimental part: as §1, §2, §3, §4, §5, §6, §7, §8
The test system of the next series is leucémie L1210. The note with it: mouse, leucémie L1210, compared with daunorubicine 2a / doxorubicine 2b; cited from earlier work.
The test system of another series is sarcome S 180. To be noted: mouse, sarcome S 180, compared with daunorubicine 2a / doxorubicine 2b; cited from earlier work.
The next series deals with leucémie P 388. To be noted: mouse, leucémie P 388, compared with daunorubicine 2a / doxorubicine 2b; cited from earlier work.
The conditions of series [2]: animal models, compared with 2a and 2b; cited from earlier work.

For `COc1cccc2c1C(=O)c1c(O)c3c(c(O)c1C2=O)C[C@@](O)(C(C)=O)C[C@@H]3O[C@H]1C[C@H](CNC(=O)C(F)(F)F)C[C@H](C)O1` [15a, O-(N-TRIFLUOROACETYL AMINOMETHYL-3′ TETRADESOXY-2′, 3′, 4′,6′-α-L-LYXO-HEXOPYRANOSYL)-7 DAUNOMYCINONE], the IC₅₀ in series [1] is on record as 0,25 µg/ml; in the series with cellules tumorales HT 29 it was 0,67 µg/ml; in the series on cellules tumorales A 549 it was 0,43 µg/ml.
With `CC[C@@]1(O)C[C@H](O[C@H]2C[C@H](CNC(=O)C(F)(F)F)C[C@H](C)O2)c2c(O)c3c(c(O)c2[C@H]1O)C(=O)c1cccc(O)c1C3=O` [16a, O-(N-TRIFLUOROACETYL AMINOMETHYL-3′ TETRADESOXY-2′,3′, 4′,6′-α-L-LYXO-HEXOPYRANOSYL)-7 β-RHODOMYCINONE], the IC₅₀ in series [1] is 0,14 µg/ml; in the series with cellules tumorales HT 29, 0,48 µg/ml; with cellules tumorales A 549, 0,14 µg/ml.
For `COc1cccc2c1C(=O)c1c(O)c3c(c(O)c1C2=O)C[C@@](O)(C(C)=O)C[C@@H]3O[C@H]1C[C@H](N)C[C@H](C)O1` [compound 3], the activité in vivo result in the series with leucémie L1210, in the series on sarcome S 180 and with leucémie P 388 was “aussi actifs” throughout. The cardiotoxicité entry in series [2] is “moins cardiotoxiques”.
For the molecule `COc1cccc2c1C(=O)c1c(O)c3c(c(O)c1C2=O)C[C@@](O)(C(=O)CO)C[C@@H]3O[C@H]1C[C@H](N)C[C@H](C)O1` [compound 4], the activité in vivo entry in the series with leucémie L1210, in the series with sarcome S 180 and with leucémie P 388 was “aussi actifs” in each case. For the same molecule, in series [2], the cardiotoxicité entry was “moins cardiotoxiques”.
